Experimental data from the Kinase Knowledgebase extract (Sharma et al. 2016).

Target: MAPK14 (human) (UniProt Q16539)
Test: Inhibition of MAPK14 Kinase Activity

Chain of MAPK14 (human) (Q16539 whole entry, looked up): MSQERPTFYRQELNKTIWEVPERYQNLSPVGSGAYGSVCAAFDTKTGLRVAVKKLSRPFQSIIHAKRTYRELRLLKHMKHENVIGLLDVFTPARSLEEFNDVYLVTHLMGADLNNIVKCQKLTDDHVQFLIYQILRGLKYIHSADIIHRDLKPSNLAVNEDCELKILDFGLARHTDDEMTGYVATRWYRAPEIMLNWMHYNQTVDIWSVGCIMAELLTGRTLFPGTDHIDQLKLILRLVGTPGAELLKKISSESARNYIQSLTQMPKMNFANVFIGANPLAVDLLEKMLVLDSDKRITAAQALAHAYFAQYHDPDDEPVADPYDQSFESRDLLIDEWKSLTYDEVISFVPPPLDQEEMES

Structure (SMILES)	IC50
Cc1c(NC(=O)c2ccc(F)cc2)sc(C(=O)N2CCOCC2)c1Cl	< 15 µM
Cc1c(NC(=O)Nc2cc(C(C)(C)C)nn2-c2ccc(F)cc2)sc(C(=O)N2CCN(C)CC2)c1Cl	< 15 µM
Cc1c(NC(=O)c2cc(F)cc(N3CCOCC3)c2)sc(C(=O)Nc2ccc(F)cc2)c1Cl	< 15 µM
COC(=O)c1sc(NC(=O)c2ccc(F)cc2)c(C)c1C#N	< 15 µM
Cc1cc(NC(=O)c2cc(F)cc(N3CCOCC3)c2)sc1C(=O)N1CCOCC1	< 15 µM
COC(=O)c1sc(NC(=O)c2cc(F)cc(N3CCOCC3)c2)c(C)c1Cl	< 15 µM
Cc1c(NC(=O)Nc2nnc(C3CCCCC3)s2)sc(C(=O)N2CCOCC2)c1Cl	< 15 µM
Cc1c(NC(=O)Nc2cc(C(C)(C)C)nn2-c2ccc(F)cc2)sc(C(=O)NCc2ccncc2)c1Cl	< 15 µM
Cc1c(NC(=O)c2cc(F)cc(N3CCOCC3)c2)sc(C(=O)N2CCOCC2)c1Cl	< 15 µM
COC(=O)c1sc(NC(=O)Nc2cc(C(C)(C)C)nn2-c2ccc(F)cc2)c(C)c1Cl	< 15 µM
CC(C)(C)c1cc(NC(=O)Nc2ccc(C(=O)N3CCOCC3)s2)n(-c2ccc(F)cc2)n1	< 15 µM

Continued, values first:

IC50	Structure (SMILES)
< 15 µM	Cc1c(NC(=O)c2ccc(F)cc2)sc(C(=O)Nc2ccc(F)cc2)c1Cl
< 15 µM	Cc1c(NC(=O)Nc2nnc(N3CCOCC3)s2)sc(C(=O)N2CCOCC2)c1Cl
< 15 µM	Cc1c(NC(=O)Nc2cc(C(C)(C)C)nn2-c2ccc(F)cc2F)sc(C(=O)N2CCOCC2)c1Cl
< 15 µM	CCOC(=O)c1ccc(NC(=O)Nc2cc(C(C)(C)C)nn2-c2ccc(F)cc2)s1
< 15 µM	COC(=O)c1sc(NC(=O)Nc2cc(C(C)(C)C)nn2-c2ccc(F)cc2)c(C#N)c1C
< 15 µM	Cc1c(NC(=O)Nc2cc(C(C)(C)C)nn2-c2ccc(F)cc2)sc(C(=O)N2CCOCC2)c1Cl
